Data set [1] has as its system MUC5A/C secretion in hCLCA1 expressing H292 cells. Briefly: MUC5A/C secretion in hCLCA1 expressing H292 cells (ELLA). On the set-up: key to ELLA: + = inhibition; − = no inhibition. The format is cell-based, human.
In data set [2] the test system is H292 clone 15 cells. Conditions: 48 hours compound, Alamar Blue 2 hours; Average of 3 experiments.
Data set [3] has as its system Muc5b. Kind of data set: Inhibition of Muc5b expression. The format is cell-based. Also noted: key: + = inhibition; − = no inhibition. To be noted: Table 2. On the procedure:
The effects of talniflumate derivatives on mucin production were also assayed for changes in ELLA and IC50 (Table 2) as described in the methods above.

Data set [4] concerns MUC5AC production by H292 clone 15 cells overexpressing hCLCA1. Briefly: ELLA of MUC5AC in conditioned media of H292 clone 15 cells. To be noted: 48 hours, Average of 3 experiments. The data set is classed as cell-based, human.
Method: Conditioned media were collected and MUC5AC (the major secretory mucin in lungs) content was determined by ELLA measurement as described below. 96 well microtiter plates were coated with a mouse monoclonal antibody against human MUC5AC (1-13M1, NeoMarkers), then incubated with test conditioned media. Bound MUC5AC was detected by horseradish peroxidase-conjugated soybean lectin which has a high affinity towards highly-glycosylated proteins such as MUC5AC. Conversion of peroxidase substrate TMB (Tetramethylbenzidine Base) was quantified by reading at 450 nm. O.D. (optical density) readings were plotted against concentrations of compounds.

Turning to `O=C1OC(CC(=O)c2cccnc2Nc2cccc(C(F)(F)F)c2)c2ccccc21` (centres unmarked) [MSI 2216], the IC50 in data set [1] (Table 2, ELLA) amounted to 5 µM; in data set [4], 3 µM. In addition, the ELLA result in data set [1] (Table 2, mucin production) is “+”. Moreover, in data set [2], the “Est. LD50 (μM)(alamar Blue)*” value was found to be 32 µM. Besides, in data set [3], the “Inhibition of Muc5b Expression” value was “+”.

The record behind these values is patent US7345051B2, “Mucin synthesis inhibitors” (Genaera Corporation, priority 2000, dated 2008).
